PubChem BioAssay AID330 (DTP/NCI, 2004)
Where “and” joins values, the source holds several entries; their conditions need not be identical. Identical values can stand only once. Inconclusive results and toxic doses are left out. Rule for the calls: active = survival T/C of 150% or more; inactive = T/C below 125% in these data.

Tested on: P388 leukemia ip, CD2F1 mice, survival T/C
Assay: NCI In Vivo Anticancer Drug Screen. Data for tumor model P388 Leukemia (intraperitoneal) in CD2F1 (CDF1) mice
Settings: endpoint: median survival time, higher = longer survival
How it was run: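 Mice carrying the transplanted tumor received test compound or vehicle. Survival was recorded in each group, and the value is the treated-group measurement divided by that of the vehicle-treated control group.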

[1] = dose: 60.0 mg/kg/injection, schedule: Q01DX005 (ip), vehicle: saline with Tween-80
[2] = dose: 120.0 mg/kg/injection, schedule: Q01DX005 (ip), vehicle: saline with Tween-80
[3] = dose: 50.0 mg/kg/injection, schedule: Q04DX003 (ip), vehicle: saline with Tween-80
[4] = dose: 100.0 mg/kg/injection, schedule: Q04DX003 (ip), vehicle: saline with Tween-80
[5] = dose: 50.0 mg/kg/injection, schedule: Q01DX005 (ip), vehicle: Klucel (hydroxypropylcellulose) (HPC)
[6] = dose: 100.0 mg/kg/injection, schedule: Q01DX005 (ip), vehicle: Klucel (hydroxypropylcellulose) (HPC)
[7] = dose: 200.0 mg/kg/injection, schedule: Q01DX005 (ip), vehicle: Klucel (hydroxypropylcellulose) (HPC)
[8] = dose: 50.0 mg/kg/injection, schedule: Q01DX009 (ip), vehicle: saline with Tween-80
[9] = dose: 100.0 mg/kg/injection, schedule: Q01DX009 (ip), vehicle: saline with Tween-80
[10] = dose: 200.0 mg/kg/injection, schedule: Q01DX009 (ip), vehicle: saline with Tween-80
[11] = dose: 50.0 mg/kg/injection, schedule: Q01DX005 (ip), vehicle: saline with Tween-80
[12] = dose: 100.0 mg/kg/injection, schedule: Q01DX005 (ip), vehicle: saline with Tween-80
[13] = dose: 200.0 mg/kg/injection, schedule: Q01DX005 (ip), vehicle: saline with Tween-80
[14] = dose: 25.0 mg/kg/injection, schedule: Q01DX005 (ip), vehicle: saline with Tween-80
[15] = dose: 50.0 mg/kg/injection, schedule: Q01DX005 (ip), vehicle: saline
[16] = dose: 25.0 mg/kg/injection, schedule: Q01DX009 (ip), vehicle: suspension in saline
[17] = dose: 50.0 mg/kg/injection, schedule: Q01DX009 (ip), vehicle: suspension in saline
[18] = dose: 240.0 mg/kg/injection, schedule: Q01DX005 (ip), vehicle: saline with Tween-80

Measured: T/C

COC(=O)c1ncn(CCCO)c1O
inactive: dose: 100.0 mg/kg/injection, schedule: Q01DX001 (ip), vehicle: saline 92 % of control | dose: 200.0 mg/kg/injection, schedule: Q01DX001 (ip), vehicle: saline 100 % of control | dose: 400.0 mg/kg/injection, schedule: Q01DX001 (ip), vehicle: saline 104 % of control

OCC1OC([Se])C(O)C(O)C1O.[CH3][Sb][CH3] (centres undefined)
inactive: [1] 112 % of control | [2] 104 % of control

O=C(NC1CCCCC1)C(=NC1CCCCC1)c1cc(Cl)c(Cl)c(Cl)c1Cl
inactive: [3] 98 % of control | [4] 98 % of control | dose: 200.0 mg/kg/injection, schedule: Q04DX003 (ip), vehicle: saline with Tween-80 87 % of control

CC(=O)N1C(=O)c2ccccc2NC1(C)c1ccncc1 (centres undefined)
inactive: dose: 25.0 mg/kg/injection, schedule: Q01DX005 (ip), vehicle: Klucel (hydroxypropylcellulose) (HPC) 100 % of control | [5] 101 % of control | [6] 107 % of control | [7] 106 % of control

CCCCNc1ccc(-c2c(N)nc(N)nc2CC)cc1N
inactive: dose: 100.0 mg/kg/injection, schedule: Q01DX001 (ip), vehicle: Klucel (hydroxypropylcellulose) (HPC) 101 % of control | dose: 200.0 mg/kg/injection, schedule: Q01DX001 (ip), vehicle: Klucel (hydroxypropylcellulose) (HPC) 93 % of control | dose: 400.0 mg/kg/injection, schedule: Q01DX001 (ip), vehicle: Klucel (hydroxypropylcellulose) (HPC) 94 % of control

C=CC1=C(C)C(/C=c2/[nH]/c(=C\c3[nH]c(/C=C4/NC(=O)C(C)=C4C=C)c(C)c3CCC(=O)O)c(CCC(=O)O)c2C)=NC1=O
inactive: [8] 95 % of control | [9] 91 % of control | [10] 88 % of control

CCC(c1ccc(OC)cc1)C(NC(=S)Nc1ccc(C)cc1)c1ccc(OC)cc1 (centres undefined)
inactive: dose: 100.0 mg/kg/injection, schedule: Q01DX001 (ip), vehicle: saline with Tween-80 88 % of control | dose: 200.0 mg/kg/injection, schedule: Q01DX001 (ip), vehicle: saline with Tween-80 88 % of control | dose: 400.0 mg/kg/injection, schedule: Q01DX001 (ip), vehicle: saline with Tween-80 90 % of control

CC1(C(N)=O)CCSc2ccccc2C1=O (centres undefined)
inactive: [11] 95 % of control | [12] 92 % of control | [13] 94 % of control

CC(OC(=O)C1C2C=CC(C2)C1C(=O)O)c1cccnc1 (centres undefined)
inactive: [5] 97 % of control | [6] 100 % of control | [7] 98 % of control

CN1[C@H]2C=CC(=O)[C@]1(Cl)[C@H]1C(=O)N(c3ccccc3)C(=O)[C@@H]21
inactive: [14] 106 % of control | [11] 109 % of control | [12] 105 % of control | [13] 118 % of control

CCNC(=S)N/N=C\C=N/NC(=S)NCC
inactive: dose: 75.0 mg/kg/injection, schedule: Q01DX009 (ip), vehicle: saline with Tween-80 105 % of control | dose: 150.0 mg/kg/injection, schedule: Q01DX009 (ip), vehicle: saline with Tween-80 92 % of control | dose: 300.0 mg/kg/injection, schedule: Q01DX009 (ip), vehicle: saline with Tween-80 103 % of control

CN1C(=O)Cn2c(nn(CCN3CCCC3)c(=O)c2=O)-c2cc(Cl)ccc21
inactive: dose: 50.0 mg/kg/injection, schedule: Q01DX009 (ip), vehicle: saline 103 % of control | dose: 100.0 mg/kg/injection, schedule: Q01DX009 (ip), vehicle: saline 105 % of control | dose: 200.0 mg/kg/injection, schedule: Q01DX009 (ip), vehicle: saline 103 % of control

Cc1nc2c([N+](=O)[O-])c(Nc3ccccc3)c([N+](=O)[O-])cc2[nH]1
inactive: dose: 25.0 mg/kg/injection, schedule: Q04DX003 (ip), vehicle: saline with Tween-80 92 % of control | [3] 101 % of control | [4] 104 % of control and 90 % of control

CCNC(=O)CCC(NS(=O)(=O)c1ccc(NC(C)=O)cc1)C(=O)O (centres undefined)
inactive: dose: 100.0 mg/kg/injection, schedule: Q04DX002 (ip), vehicle: Klucel (hydroxypropylcellulose) (HPC) 91 % of control | dose: 200.0 mg/kg/injection, schedule: Q04DX002 (ip), vehicle: Klucel (hydroxypropylcellulose) (HPC) 107 % of control | dose: 400.0 mg/kg/injection, schedule: Q04DX002 (ip), vehicle: Klucel (hydroxypropylcellulose) (HPC) 92 % of control

[Cl][Sn]1([Cl])[CH2]CC[CH2][Sn]([Cl])([Cl])[CH2]CC[CH2][Sn]([Cl])([Cl])[CH2]CC[CH2][Sn]([Cl])([Cl])[CH2]CC[CH2]1
inactive: [15] 93 % of control | dose: 100.0 mg/kg/injection, schedule: Q01DX005 (ip), vehicle: saline 92 % of control | dose: 200.0 mg/kg/injection, schedule: Q01DX005 (ip), vehicle: saline 102 % of control

COc1ccc2c(c1O)C13CC=NC(C2)C1C(C)(C)C(C)(C)C(=O)C3 (centres undefined)
inactive: dose: 12.5 mg/kg/injection, schedule: Q01DX005 (ip), vehicle: saline with Tween-80 100 % of control | [14] 101 % of control | [11] 100 % of control and 97 % of control

CCCC(C)N(CCCNc1cc(OC)cc2cccnc12)CC(C)C (centres undefined)
inactive: dose: 12.5 mg/kg/injection, schedule: Q01DX005 (ip), vehicle: saline 100 % of control | dose: 25.0 mg/kg/injection, schedule: Q01DX005 (ip), vehicle: saline 107 % of control | [11] 96 % of control | [15] 94 % of control

COC(=O)c1cc2c(C(=O)OC)cc1CSCc1cccc(c1)CSC2
inactive: dose: 12.5 mg/kg/injection, schedule: Q01DX009 (ip), vehicle: suspension in saline 90 % of control | [16] 87 % of control | [17] 97 % of control

CC1NC(C(=O)O)Cc2c1[nH]c1ccccc21 (centres undefined)
inactive: [16] 105 % of control | [17] 105 % of control | dose: 50.0 mg/kg/injection, schedule: Q04DX003 (ip), vehicle: saline 100 % of control | dose: 100.0 mg/kg/injection, schedule: Q01DX009 (ip), vehicle: suspension in saline 102 % of control | dose: 100.0 mg/kg/injection, schedule: Q04DX003 (ip), vehicle: saline 100 % of control | dose: 200.0 mg/kg/injection, schedule: Q04DX003 (ip), vehicle: saline 102 % of control

COc1ccc2nc3cc(Cl)ccc3c(Nc3ccc(NC(C)=O)cc3)c2n1
inactive: dose: 6.25 mg/kg/injection, schedule: Q01DX009 (ip), vehicle: other 106 % of control | dose: 12.5 mg/kg/injection, schedule: Q01DX009 (ip), vehicle: other 102 % of control | dose: 25.0 mg/kg/injection, schedule: Q01DX009 (ip), vehicle: other 100 % of control | dose: 50.0 mg/kg/injection, schedule: Q01DX009 (ip), vehicle: other 96 % of control | dose: 100.0 mg/kg/injection, schedule: Q01DX009 (ip), vehicle: other 99 % of control

CCCCCCCCCCCCCCCCCCON
inactive: dose: 100.0 mg/kg/injection, schedule: Q04DX003 (ip), vehicle: Klucel (hydroxypropylcellulose) (HPC) 97 % of control | dose: 200.0 mg/kg/injection, schedule: Q04DX003 (ip), vehicle: Klucel (hydroxypropylcellulose) (HPC) 92 % of control | dose: 400.0 mg/kg/injection, schedule: Q04DX003 (ip), vehicle: Klucel (hydroxypropylcellulose) (HPC) 94 % of control

CC(C)S(=O)c1ccc(Cl)cc1[N+](=O)[O-] (centres undefined)
inactive: [8] 99 % of control | [9] 99 % of control | [10] 100 % of control

CCOC(=O)C(C#N)C(=N)C1CC(C)OC1=O (centres undefined)
inactive: [1] 100 % of control | [2] 100 % of control | [18] 98 % of control

O=c1c(Cc2ccc(Cl)cc2)coc2ccccc12
inactive: [1] 94 % of control | [2] 94 % of control | [18] 101 % of control
